Reference: publication PMC5934680, “A new class of antibacterials, the imidazopyrazinones, reveal structural transitions involved in DNA gyrase poisoning and mechanisms of resistance” (Nucleic Acids Research, 2018)

Assays:
[1] = biological target: E. coli DNA gyrase GyrA mutant EcS83L (Escherichia coli, UniProt P0AES4+P0AES6, S83L); experiment: Supercoiling inhibition assay, GyrA EcS83L mutant gyrase; format: biochemical; details: for Resistance of EcS83L mutant enzyme in supercoiling inhibition: EcS83L compared to wt
Method: (§1) Supercoiling reactions were carried out as described previously ([24]) with minor adjustments. A total of 500 ng of relaxed pBR322 plasmid was used as a substrate for each 30 μl reaction. The amount of DNA gyrase (A2B2) added was normalized by testing various dilutions of the stock (A2B2 containing 0.5 mg/ml of each subunit) without compound. The amount sufficient to supercoil 50% of the substrate was then used for the testing of compounds. See Supplementary Figure S1 for details. This ensured a limiting amount of enzyme for every mutant tested. The individual gyrase subunits were either prepared in the lab as described previously ([25]) or purchased from Inspiralis.
(§2) The activity of tricyclic and bicyclic IPYs (Figure 1) was tested in a supercoiling inhibition assay (Table 1) on wild-type (wt) E. coli DNA gyrase and GyrA mutants EcS83L (SaS84), EcD87A (SaE88) and EcD82N (SaD83). These residues are located in the ‘Quinolone-Resistance-Determining-Region’, frequently found mutated in resistant clinical isolates ([18],[35–38]). Based on the structures solved of FQs bound to DNA gyrase and topo IV, it has been established that both residues EcS83 and EcD87 are involved in a water–metal–ion bridge that is important for the stabilization of the ternary complex, explaining the resistance to FQs observed when these residues are mutated ([15–16],[23],[29],[39]).

[2] = biological target: T1, wild-type E. coli DNA gyrase (Escherichia coli, UniProt P0AES4+P0AES6); experiment: biochemical; details: relaxed pBR322 substrate, read-out: Supercoiling IC50
Method: as §1

[3] = biological target: T2, Escherichia coli wt gyrase (Escherichia coli, UniProt P0AES4+P0AES6); format: biochemical; details: 25°C, presence vs absence of ATP
Method: The reactions were carried out either in the presence or absence of ATP for both compounds.
The top panels show the results of cleavage assays with various times allowed for the formation of the cleavage complexes as indicated. The experiment was performed in the presence and the absence of ATP as indicated. […] Approximately 400 ng of A2B2Escherichia coli wt gyrase was used in each assay.

[4] = biological target: E. coli DNA gyrase GyrA mutant EcD82N (Escherichia coli, UniProt P0AES4+P0AES6, D82N); experiment: Supercoiling inhibition assay, GyrA EcD82N mutant gyrase; format: biochemical
Method: as §1, §2

[5] = biological target: E. coli DNA gyrase GyrA mutant EcD87A (Escherichia coli, UniProt P0AES4+P0AES6, D87A); experiment: Supercoiling inhibition assay, GyrA EcD87A mutant gyrase; format: biochemical
Method: as §1, §2

[6] = tested on: ΔTolC E. coli; parameters: method as in Jeannot et al. In revision in J Med Chem; details: ref Jeannot et al. In revision in J Med Chem; cited from earlier work
[7] = biological target: T2, Escherichia coli wt gyrase; format: biochemical; details: 8 mM EDTA, no ATP; disappearance of linear double-strand cleavage
Method: (§3) A total of 500 ng of relaxed pBR322 plasmid was used as a substrate for each 30 μl reaction.
Figure 6.

[8] = biological target: T1, wild-type E. coli DNA gyrase; format: biochemical; details: purified E. coli DNA gyrase, linear plasmid DNA
Method: as §3

Row | Structure (SMILES) | IC50 [1] | Resistance of EcS83L mutant enzyme in supercoiling inhibition [1] | IC50 [2] | Effect of ATP on rate of appearance of linear DNA (cleavage) [3] | Increase in supercoiling IC50 with EcS83L mutant compared to wt ([1]; EcS83L vs wild-type) | IC50 [4] | IC50 [5] | Antibacterial activity ranking on ΔTolC E. coli [6] | Resealing of stabilized cleavage by EDTA [7] | Level of double-stranded cleavage induced [8] | Resistance of EcD82N mutant enzyme in supercoiling inhibition ([4]; EcD82N compared to wt) | Resistance of EcD87A mutant enzyme in supercoiling inhibition ([5]; EcD87A compared to wt)
1 | O=C(Cc1ccccc1)Nc1ccc(-c2cn(-c3ccc(O)cc3)c(=O)c3nccn23)cc1 [b1, N-{4-[7-(4-hydroxyphenyl)-8-oxo-7,8-dihydroimidazo[1,2-a]pyrazin-5-yl]phenyl}-2-phenylacetamide] | 1 µM | improved activity toward the EcS83L mutant enzyme compared to the wt | 2.6 µM | – | – | – | – | – | – | – | – | –
2 | Cn1cc(-c2ccc(NC(=O)Cc3ccc(Cl)cc3)cc2)n2ccnc2c1=O [b2] | 11 µM | less active against EcS83L | 5.2 µM | – | – | – | – | – | – | – | – | –
3 | N[C@H]1CCN(c2cc3c(cc2F)n2ccnc2c(=O)n3C2CC2)C1 [t1] | 3.7 µM | – | 0.5 µM | greatly stimulated | ~7 fold | 9.4 µM | 0.5 µM | most active tricyclic IPY | slower | comparable to those obtained with ciprofloxacin | – | –
4 | N[C@H]1CCN(c2cc3c(cc2F)n2ncnc2c(=O)n3C2CC2)C1 [t2] | 9.5 µM | partial resistance | 1.7 µM | – | – | 4 to 20 µM | 1.7 µM | – | – | – | high resistance | low to no resistance
